Measurements: ChEMBL document CHEMBL1201862, “PubChem BioAssay data set” (2004)
Counter-ions that a name gives are not always drawn.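 How tested: cells in 96-well plates exposed to compound for 48 hours at five concentrations. GI50: concentration for 50% inhibition of growth.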 Calls of active or inactive are those of the source. Rule as the data show it: active = GI50 up to about 1.1 µM and inactive = higher.

Assays:
Assay in all cases: NCI-60 cell line screen, 48 h
[1] = system: UACC-257
[2] = system: U-251
[3] = system: UO-31
[4] = system: SK-MEL-2
[5] = system: MOLT-4
[6] = system: SF-295
[7] = system: RXF 393
[8] = system: COLO 205
[9] = system: HT-29
[10] = system: HCT-116
[11] = system: DMS-273
[12] = system: LOX IMVI
[13] = system: SF-268
[14] = system: DMS-114
[15] = system: OVCAR-5
[16] = system: TK-10
[17] = system: NCI-H460
[18] = system: K562
[19] = system: A498
[20] = system: HCT-15
[21] = system: SNB-19
[22] = system: Malme-3M
[23] = system: HOP-62
[24] = system: CCRF-CEM
[25] = system: NCI-H522
[26] = system: SK-MEL-5
[27] = system: OVCAR-4
[28] = system: HCC 2998
[29] = system: A549
[30] = system: HOP-18
[31] = system: SW-620
[32] = system: IGROV-1
[33] = system: HOP-92
[34] = system: SN12C
[35] = system: CAKI-1
[36] = system: SNB-78
[37] = system: OVCAR-8
[38] = system: LXFL 529
[39] = system: SK-OV-3
[40] = system: KM12
[41] = system: UACC-62
[42] = system: HL-60
[43] = system: NCI-H226
[44] = system: 786-0
[45] = system: SF-539
[46] = system: KM-20L2
[47] = system: SR
[48] = system: M19-MEL
[49] = system: M14
[50] = system: RPMI-8226
[51] = system: SNB-75
[52] = system: OVCAR-3
[53] = system: DLD-1
[54] = system: SK-MEL-28
[55] = system: NCI-H23
[56] = system: EKVX
[57] = system: MDA-MB-435
[58] = system: Hs-578T
[59] = system: MDA-MB-231
[60] = system: BT-549
[61] = system: T47D
[62] = system: MCF7
[63] = system: ACHN
[64] = system: DU-145
[65] = system: MDA-N
[66] = system: PC-3
[67] = system: NCI/ADR-RES

In the case of `N#CC(C#N)=c1ccc(=C2NCC3CCCN23)cc1` (stereo not given), the GI50 [1] is reported as > 100 µM (inactive), the GI50 [2] is reported as > 100 µM (inactive) and the GI50 [3] is reported as > 100 µM (inactive). For the same compound, the GI50 [4] was > 100 µM (inactive), the GI50 [5] was > 100 µM (inactive) and the GI50 [6] was > 100 µM (inactive). The GI50 [7] was > 100 µM (inactive), the GI50 [8] was > 100 µM (inactive) and the GI50 [9] was > 100 µM (inactive). For the same compound, the GI50 [10] was > 100 µM (inactive), the GI50 [11] was > 100 µM (inactive) and the GI50 [12] was > 100 µM (inactive). For the same compound, the GI50 [13] was > 100 µM (inactive), the GI50 [14] was > 100 µM (inactive) and the GI50 [15] was > 100 µM (inactive). For the same compound, the GI50 [16] was > 100 µM (inactive), the GI50 [17] was > 100 µM (inactive) and the GI50 [18] was > 100 µM (inactive). For the same compound, the GI50 [19] was > 100 µM (inactive), the GI50 [20] was greater than 100 µM and the GI50 [21] was > 100 µM (inactive). For the same compound, the GI50 [22] was > 100 µM (inactive), the GI50 [23] was > 100 µM (inactive) and the GI50 [24] was > 100 µM (inactive). The GI50 [25] was > 100 µM (inactive), the GI50 [26] was > 100 µM (inactive) and the GI50 [27] was > 100 µM (inactive). For the same compound, the GI50 [28] was > 100 µM (inactive), the GI50 [29] was > 100 µM (inactive) and the GI50 [30] was > 100 µM (inactive). For the same compound, the GI50 [31] was > 100 µM (inactive), the GI50 [32] was > 100 µM (inactive) and the GI50 [33] was > 100 µM (inactive). For the same compound, the GI50 [34] was > 100 µM (inactive), the GI50 [35] was > 100 µM (inactive) and the GI50 [36] was > 100 µM (inactive). The GI50 [37] was > 100 µM (inactive), the GI50 [38] was > 100 µM (inactive) and the GI50 [39] was > 100 µM (inactive). The GI50 [40] was > 100 µM (inactive), the GI50 [41] was > 100 µM (inactive) and the GI50 [42] was > 100 µM (inactive). The GI50 [43] was > 100 µM (inactive), the GI50 [44] was > 100 µM (inactive) and the GI50 [45] was > 100 µM (inactive). For the same compound, the GI50 [46] was > 100 µM (inactive), the GI50 [47] was > 100 µM (inactive) and the GI50 [48] was > 100 µM (inactive). For the same compound, the GI50 [49] was > 100 µM (inactive), the GI50 [50] was > 100 µM (inactive) and the GI50 [51] was > 100 µM (inactive).
For `COC(=O)[C@@]12C3=NO[C@]1(C(=O)OC)C(O[Si](C)(C)C(C)(C)C)C1OC(C)(C)OC1[C@@H]2[C@@H](OCc1ccccc1)CC3` (stereo not given in full), the GI50 [2] was > 100 µM (inactive), the GI50 [3] was 8.85 µM (inactive) and the GI50 [4] was > 100 µM (inactive). The GI50 [5] was 7.52 µM (inactive), the GI50 [6] was > 100 µM (inactive) and the GI50 [8] was 83.8 µM (inactive). For the same compound, the GI50 [9] was 33 µM (inactive), the GI50 [10] was 8.2 µM (inactive) and the GI50 [11] was 51.4 µM (inactive). The GI50 [12] was 83.9 µM (inactive), the GI50 [14] was 49.5 µM (inactive) and the GI50 [52] was 39.7 µM (inactive). For the same compound, the GI50 [16] was > 100 µM (inactive), the GI50 [18] was 8.93 µM (inactive) and the GI50 [19] was > 100 µM (inactive). The GI50 [20] was 91 µM, the GI50 [21] was > 100 µM (inactive) and the GI50 [24] was > 100 µM (inactive). For the same compound, the GI50 [26] was 85.5 µM (inactive), the GI50 [27] was 23.9 µM (inactive) and the GI50 [28] was > 100 µM (inactive). The GI50 [29] was > 100 µM (inactive), the GI50 [30] was > 100 µM (inactive) and the GI50 [31] was > 100 µM (inactive). For the same compound, the GI50 [32] was > 100 µM (inactive), the GI50 [53] was > 100 µM (inactive) and the GI50 [33] was 4.4 µM (inactive). For the same compound, the GI50 [34] was > 100 µM (inactive), the GI50 [37] was > 100 µM (inactive) and the GI50 [38] was 46.3 µM (inactive). For the same compound, the GI50 [39] was > 100 µM (inactive), the GI50 [40] was 7.73 µM (inactive) and the GI50 [54] was > 100 µM (inactive). The GI50 [41] was > 100 µM (inactive), the GI50 [42] was 3.11 µM (inactive) and the GI50 [43] was > 100 µM (inactive). For the same compound, the GI50 [44] was > 100 µM (inactive), the GI50 [45] was > 100 µM (inactive) and the GI50 [55] was 58.7 µM (inactive). The GI50 [46] was > 100 µM (inactive), the GI50 [48] was > 100 µM (inactive) and the GI50 [49] was 43.9 µM (inactive). The GI50 [50] was 6.1 µM (inactive), the GI50 [56] was > 100 µM (inactive) and the GI50 [51] was 9.66 µM (inactive).
In the case of `N[C@@H](Cc1ccc(N(CCCl)CCCl)cc1)C(=O)O` [MELPHALAN HYDROCHLORIDE], the GI50 [1] is reported as 42.5 µM (inactive), the GI50 [2] is reported as 27 µM (inactive) and the GI50 [3] is reported as 48 µM (inactive). For the same compound, the GI50 [4] was 56.2 µM (inactive), the GI50 [5] was 2.79 µM (inactive) and the GI50 [6] was 20 µM (inactive). The GI50 [7] was 28.9 µM (inactive), the GI50 [8] was 43.3 µM (inactive) and the GI50 [57] was 41.9 µM (inactive). For the same compound, the GI50 [9] was 75.3 µM (inactive), the GI50 [58] was 51.8 µM (inactive) and the GI50 [10] was 42.1 µM (inactive). For the same compound, the GI50 [11] was 9.71 µM (inactive), the GI50 [12] was 20.3 µM (inactive) and the GI50 [13] was 19.9 µM (inactive). For the same compound, the GI50 [14] was 20.2 µM (inactive), the GI50 [15] was 47.4 µM (inactive) and the GI50 [52] was 42.3 µM (inactive). The GI50 [16] was 67.1 µM (inactive), the GI50 [17] was 7.35 µM (inactive) and the GI50 [18] was 50.7 µM (inactive). For the same compound, the GI50 [19] was 99.1 µM (inactive), the GI50 [20] was 39.4 µM and the GI50 [21] was 51.6 µM (inactive). For the same compound, the GI50 [59] was 48.6 µM (inactive), the GI50 [22] was 23.8 µM (inactive) and the GI50 [60] was 38 µM (inactive). The GI50 [23] was 15.4 µM (inactive), the GI50 [24] was 2.85 µM (inactive) and the GI50 [25] was 25.2 µM (inactive). The GI50 [26] was 38.3 µM (inactive), the GI50 [27] was 40 µM (inactive) and the GI50 [28] was 43.3 µM (inactive). The GI50 [29] was 28.7 µM (inactive), the GI50 [61] was 14.1 µM (inactive) and the GI50 [31] was 33.6 µM (inactive). The GI50 [53] was 47 µM (inactive), the GI50 [33] was 36.8 µM (inactive) and the GI50 [62] was 11.1 µM (inactive). The GI50 [34] was 14.5 µM (inactive), the GI50 [35] was 10.9 µM (inactive) and the GI50 [63] was 9.57 µM (inactive). For the same compound, the GI50 [64] was 47.2 µM (inactive), the GI50 [36] was 55.5 µM (inactive) and the GI50 [37] was 35.2 µM (inactive). For the same compound, the GI50 [38] was 49.3 µM (inactive), the GI50 [65] was 46.3 µM (inactive) and the GI50 [39] was 32 µM (inactive). The GI50 [66] was 37.4 µM (inactive), the GI50 [40] was 71.1 µM (inactive) and the GI50 [54] was 57.8 µM (inactive). For the same compound, the GI50 [41] was 11.2 µM (inactive), the GI50 [42] was 2.51 µM (inactive) and the GI50 [43] was 49.9 µM (inactive). For the same compound, the GI50 [44] was 17.4 µM (inactive), the GI50 [45] was 16.6 µM (inactive) and the GI50 [55] was 23 µM (inactive). For the same compound, the GI50 [46] was 76.2 µM (inactive), the GI50 [47] was 1.71 µM (inactive) and the GI50 [48] was 39.6 µM (inactive). For the same compound, the GI50 [49] was 24.5 µM (inactive), the GI50 [50] was 44 µM (inactive) and the GI50 [67] was 40.7 µM (inactive). For the same compound, the GI50 [51] was 34.7 µM (inactive).
